# Assay results taken from PubChem BioAssay AID2060902 (Molecular Pharmacology Branch, DTP, NCI, 2025).
# Tested on: 485368-065-R3-J5-PDC spheroids with HUVEC/MSC, viability
# Assay: Anticancer human tumor 485368-065-R3-J5-PDC patient-derived pancreatic carcinoma cell line growth inhibition [RAS]
# Details: for IC50: curve of first compound; for viability, T/C: stronger effect = lower value
# Method in brief: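 Agents were tested in combination matrices in half-log decrements from a top concentration at or near clinical Cmax (10 microM if undetermined). Targets were multi-cell spheroids of tumour lines plus HUVEC and MSC stromal cells.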
# [1] = second compound 0.000949 µM, first compound 0.0316 µM
# [2] = second compound 0.000949 µM, first compound 0.1 µM
# [3] = second compound 0.000949 µM, first compound 0.316 µM
# [4] = second compound 0.000949 µM, first compound 1 µM
# [5] = second compound 0.000949 µM, first compound 3.16 µM
# [6] = second compound 0.000949 µM, first compound 10 µM
# [7] = second compound 0.003 µM, first compound 0.0316 µM
# [8] = second compound 0.003 µM, first compound 0.1 µM
# [9] = second compound 0.003 µM, first compound 0.316 µM
# [10] = second compound 0.003 µM, first compound 1 µM
# [11] = second compound 0.003 µM, first compound 3.16 µM
# [12] = second compound 0.003 µM, first compound 10 µM
# [13] = second compound 0.00949 µM, first compound 0.0316 µM
# [14] = second compound 0.00949 µM, first compound 0.1 µM
# [15] = second compound 0.00949 µM, first compound 0.316 µM
# [16] = second compound 0.00949 µM, first compound 1 µM
# [17] = second compound 0.00949 µM, first compound 3.16 µM
# [18] = second compound 0.00949 µM, first compound 10 µM
# [19] = second compound 0.03 µM, first compound 0.0316 µM
# [20] = second compound 0.03 µM, first compound 0.1 µM
# [21] = second compound 0.03 µM, first compound 0.316 µM
# [22] = second compound 0.03 µM, first compound 1 µM
# [23] = second compound 0.03 µM, first compound 3.16 µM
# [24] = second compound 0.03 µM, first compound 10 µM
# [25] = second compound 0.0949 µM, first compound 0.0316 µM
# [26] = second compound 0.0949 µM, first compound 0.1 µM
# [27] = second compound 0.0949 µM, first compound 0.316 µM
# [28] = second compound 0.0949 µM, first compound 1 µM
# [29] = second compound 0.0949 µM, first compound 3.16 µM
# [30] = second compound 0.0949 µM, first compound 10 µM
# [31] = second compound 0.3 µM, first compound 0.0316 µM
# [32] = second compound 0.3 µM, first compound 0.1 µM
# [33] = second compound 0.3 µM, first compound 0.316 µM
# [34] = second compound 0.3 µM, first compound 1 µM
# [35] = second compound 0.3 µM, first compound 3.16 µM
# [36] = second compound 0.3 µM, first compound 10 µM
# 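Also: spheroids exposed to agents for seven days before readout.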
compound,measurement,setting,value
CC1(O)CCCC1n1c(=O)c(C(F)F)cc2cnc(NC3CCN(S(C)(=O)=O)CC3)nc21 (centres undefined) + CCn1c(-c2cccnc2C(C)OC)c2c3cc(ccc31)N1CCOC(CC(NC(=O)C(C(C)C)N(C)C(=O)C3(F)CCN(C(=O)C#CC(C)(C)N(C)C)CC3)C(=O)N3CCCC(N3)C(=O)OCC(C)(C)C2)C1,IC50,second compound 0.000949 µM,279 nM
same,IC50,second compound 0.003 µM,722 nM
same,IC50,second compound 0.00949 µM,580 nM
same,IC50,second compound 0.03 µM,254 nM
same,IC50,second compound 0.0949 µM,636 nM
same,IC50,second compound 0.3 µM,656 nM
same,"viability, T/C",[1],106%
same,"viability, T/C",[2],79.2%
same,"viability, T/C",[3],44.9%
same,"viability, T/C",[4],40.2%
same,"viability, T/C",[5],46%
same,"viability, T/C",[6],24.5%
same,"viability, T/C",[7],91.4%
same,"viability, T/C",[8],82.9%
same,"viability, T/C",[9],50.4%
same,"viability, T/C",[10],41.9%
same,"viability, T/C",[11],48.5%
same,"viability, T/C",[12],21.3%
same,"viability, T/C",[13],92.8%
same,"viability, T/C",[14],77.1%
same,"viability, T/C",[15],42.9%
same,"viability, T/C",[16],48.2%
same,"viability, T/C",[17],44.8%
same,"viability, T/C",[18],18%
same,"viability, T/C",[19],97.6%
same,"viability, T/C",[20],88.6%
same,"viability, T/C",[21],40.8%
same,"viability, T/C",[22],41.2%
same,"viability, T/C",[23],49.2%
same,"viability, T/C",[24],17.4%
same,"viability, T/C",[25],96%
same,"viability, T/C",[26],80%
same,"viability, T/C",[27],48.5%
same,"viability, T/C",[28],41.2%
same,"viability, T/C",[29],49.8%
same,"viability, T/C",[30],17.4%
same,"viability, T/C",[31],105%
same,"viability, T/C",[32],86.1%
same,"viability, T/C",[33],47%
same,"viability, T/C",[34],44.8%
same,"viability, T/C",[35],48.5%
same,"viability, T/C",[36],13.1%
CCC(CC)c1cc(NC2CCC(N)C2)n2nccc2n1 (centres undefined) + CCn1c(-c2cccnc2C(C)OC)c2c3cc(ccc31)N1CCOC(CC(NC(=O)C(C(C)C)N(C)C(=O)C3(F)CCN(C(=O)C#CC(C)(C)N(C)C)CC3)C(=O)N3CCCC(N3)C(=O)OCC(C)(C)C2)C1,IC50,second compound 0.000949 µM,1980 nM
same,IC50,second compound 0.003 µM,2010 nM
same,IC50,second compound 0.00949 µM,1990 nM
same,IC50,second compound 0.03 µM,2030 nM
same,IC50,second compound 0.0949 µM,2040 nM
same,IC50,second compound 0.3 µM,2000 nM
same,"viability, T/C",[1],104%
same,"viability, T/C",[2],97.3%
same,"viability, T/C",[3],116%
same,"viability, T/C",[4],133%
same,"viability, T/C",[5],5.59%
same,"viability, T/C",[6],9.62%
same,"viability, T/C",[7],102%
same,"viability, T/C",[8],109%
same,"viability, T/C",[9],116%
same,"viability, T/C",[10],133%
same,"viability, T/C",[11],5.13%
same,"viability, T/C",[12],10.4%
same,"viability, T/C",[13],95.7%
same,"viability, T/C",[14],112%
same,"viability, T/C",[15],101%
same,"viability, T/C",[16],138%
same,"viability, T/C",[17],4.94%
same,"viability, T/C",[18],11.5%
same,"viability, T/C",[19],104%
same,"viability, T/C",[20],103%
same,"viability, T/C",[21],112%
same,"viability, T/C",[22],152%
same,"viability, T/C",[23],4.96%
same,"viability, T/C",[24],11%
same,"viability, T/C",[25],105%
same,"viability, T/C",[26],108%
same,"viability, T/C",[27],114%
same,"viability, T/C",[28],149%
same,"viability, T/C",[29],5.12%
same,"viability, T/C",[30],10.1%
same,"viability, T/C",[31],108%
same,"viability, T/C",[32],111%
same,"viability, T/C",[33],120%
same,"viability, T/C",[34],123%
same,"viability, T/C",[35],4.15%
same,"viability, T/C",[36],9.84%
